Tested on: 233499-124-R-J3-PDC complex spheroid viability, % test/control
Experiment: Anticancer human tumor 233499-124-R-J3-PDC patient-derived colon adenocarcinoma cell line growth inhibition
Conditions: for viability, T/C: stronger effect = lower value
Description: Multicellular complex tumor spheroid response to LSD1 Inhibitor Iadademstat in combination with a variety of drugs and investigational agents in selected tumor cell lines
The current study was undertaken to assess response to LSD1 inhibitors in combination with standard-of-care drugs and investigational agents in solid tumor complex spheroid models as well as in the K-562 leukemia. Complex spheroids include a stromal component modeled by human endothelial cells (HUVEC) and fibroblasts modeled by human mesenchymal stem cells (MSCs). The concentration ranges selected for each drug and investigational agent were based upon clinically achievable concentrations if the clinical Cmax of the agent was known.
Compounds. The drugs and investigational agents used in this study are listed on Table 1. All of the agents used, including staurosporine (NSC755774) and gemcitabine (NSC613327), were obtained from the Developmental Therapeutics Program, NCI. FDA-approved anticancer drugs are available from the NCI at http://dtp.nci.nih.gov/branches/dscb/oncology_drugset_explanation.html. Drugs and investigational agents were >95% pure by proton nuclear magnetic resonance (NMR) and liquid chromatography/mass spectrometry (LC/MS). Stock solutions were prepared at 400x in DMSO, stored at -70 degrees C, and diluted in fresh medium prior to their use. The final concentration of DMSO in cell culture wells never exceeded 0.25% (v/v). The FDA-approved anticancer drug set is available from the Developmental Therapeutics Program at https://dtp.cancer.gov/organization/dscb/obtaining/available_plates.htm. All drugs and investigational agents were tested over a range starting from a high concentration at or near the clinical Cmax and decreasing in half-log increments. If the clinical Cmax for an agent had not been determined, the highest concentration tested was 10 microM.
Cell Lines. The patient-derived cancer cell (PDC) lines: 292921-168-R-J2-PDC, K24384-001-R-PDC, and 521955-158-R2-J5-PDC pancreatic carcinomas, 556581-035-R-J1 ovarian carcinoma, 324938-238-R-J1-PDC, 855422-203-R-J1-PDC and 883617-216-R-J1-PDC urothelial bladder carcinomas, 743489-274-T-PDC renal cell carcinoma, 138582-R-J1 Merkel cell tumor, K60290-347-R-J1 and K57222-313-R-J1-PDC glioblastomas, 653999-131-R-J2-PDC, LG0703-F948-PDC, and 349418-098-R-PDC non-small cell lung carcinomas, 885512-296-R-J2-PDC, 171881-019-R-J1-PDC breast carcinomas and 186277-243-T-J2-PDC and 233499-124-R-J2-PDC colon carcinomas were obtained from the NCI Patient-Derived Models Repository (PDMR, https://pdmr.cancer.gov). The established cell lines NCI/ADR-RES (RRID:CVCL_14520 and OVCAR-5 (RRID:CVCL_1628) ovarian carcinomas, 786-O (RRID:CVCL_1051) and A498 (RRID:CVCL_A498) renal cell carcinoma, NCI-H211 (ATCC, cat. CRL-5824; RRID:CVCL_1529), NCI-H196 (ATCC, cat. CRL-5823, RRID:CVCL_1509), SW 1271 (ATCC, cat. CRL-2177, RRID:CVCL_1716) and NCI-H1876 (ATCC, cat. CRL-5902, RRID:CVCL_1503) small cell lung carcinomas, MDA-MB-231 (RRID:CVCL_0062) and MDA-MB-468 (RRID:CVCL_0419)breast carcinomas (10-12). Pooled donor human umbilical vein endothelial cells (HUVEC, Lonza, cat. CC-2519) and human mesenchymal stem cells (hMSC, Lonza, cat. PT-2501) were purchased from Lonza (Walkersville, MD).
Cell Culture. All cells were maintained in an incubator at 37 degrees C and 5% CO2 with 95% humidity. The PDC lines were cultured according to standard operating procedures established by the NCI PDMR (https://pdmr.cancer.gov). Briefly all PDCs were thawed and cultured in Matrigel-coated flasks prepared with a working solution of 1X Ham's F-12 nutrient mix, without supplementation (Invitrogen, Waltham, MA, cat. 11765054), 100 U/mL penicillin-streptomycin (Invitrogen, cat. 15140122), and 2.5% Matrigel (Corning Inc., Corning, NY, cat. 354248) for the first three passages. […]

[1] = curve of first compound, second compound 0.1 µM
[2] = curve of first compound, second compound 0.316 µM
[3] = curve of first compound, second compound 1 µM
[4] = curve of first compound, second compound 3.16 µM
[5] = curve of first compound, second compound 10 µM
[6] = second compound 0.1 µM, first compound 0.0316 µM
[7] = second compound 0.1 µM, first compound 0.1 µM
[8] = second compound 0.316 µM, first compound 0.0316 µM
[9] = second compound 0.316 µM, first compound 0.1 µM
[10] = second compound 1 µM, first compound 0.0316 µM
[11] = second compound 1 µM, first compound 0.1 µM
[12] = second compound 3.16 µM, first compound 0.0316 µM
[13] = second compound 3.16 µM, first compound 0.1 µM
[14] = second compound 10 µM, first compound 0.0316 µM
[15] = second compound 10 µM, first compound 0.1 µM
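Note: spheroids exposed to agents for one week before readout.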

`COc1cc(Nc2ncc3c(n2)-c2ccc(Cl)cc2C(c2c(F)cccc2OC)=NC3)ccc1C(=O)O` was tested, and the viability, T/C (compound 0.00316 µM) was 43.2%, the viability, T/C (compound 0.01 µM) was 61% and the viability, T/C (compound 0.0316 µM) was 55.2%. It also gave a viability, T/C (compound 0.1 µM) of 63.2%, a viability, T/C (compound 0.316 µM) of 63.9% and a viability, T/C (compound 1 µM) of 84.3%. It also gave an IC50 (curve of compound) of under 0.00316 µM.
`CC[C@@]1(O)C(=O)OCc2c1cc1n(c2=O)Cc2cc3c(CN(C)C)c(O)ccc3nc2-1` + NC1CC1c1ccc(-c2cccc(O)c2)cc1 showed an IC50 [1] of over 0.1 µM, an IC50 [2] of over 0.1 µM and an IC50 [3] of over 0.1 µM. For the same molecule, the IC50 [4] was over 0.1 µM, the IC50 [5] was over 0.1 µM and the viability, T/C (second compound 0.1 µM, first compound 0.000316 µM) was 109%. For the same molecule, the viability, T/C (second compound 0.1 µM, first compound 0.001 µM) was 99%, the viability, T/C (second compound 0.1 µM, first compound 0.00316 µM) was 81.8% and the viability, T/C (second compound 0.1 µM, first compound 0.01 µM) was 52.1%. For the same molecule, the viability, T/C [6] was 73.5%, the viability, T/C [7] was 115% and the viability, T/C (second compound 0.316 µM, first compound 0.000316 µM) was 96.6%. For the same molecule, the viability, T/C (second compound 0.316 µM, first compound 0.001 µM) was 90%, the viability, T/C (second compound 0.316 µM, first compound 0.00316 µM) was 72.3% and the viability, T/C (second compound 0.316 µM, first compound 0.01 µM) was 71.4%. It also gave a viability, T/C [8] of 79.5%, a viability, T/C [9] of 107% and a viability, T/C (second compound 1 µM, first compound 0.000316 µM) of 86.7%. It also gave a viability, T/C (second compound 1 µM, first compound 0.001 µM) of 94%, a viability, T/C (second compound 1 µM, first compound 0.00316 µM) of 62.1% and a viability, T/C (second compound 1 µM, first compound 0.01 µM) of 67.9%. For the same molecule, the viability, T/C [10] was 57.3%, the viability, T/C [11] was 104% and the viability, T/C (second compound 3.16 µM, first compound 0.000316 µM) was 89.3%. For the same molecule, the viability, T/C (second compound 3.16 µM, first compound 0.001 µM) was 96.3%, the viability, T/C (second compound 3.16 µM, first compound 0.00316 µM) was 63.6% and the viability, T/C (second compound 3.16 µM, first compound 0.01 µM) was 68.3%. For the same molecule, the viability, T/C [12] was 70%, the viability, T/C [13] was 94.1% and the viability, T/C (second compound 10 µM, first compound 0.000316 µM) was 77.7%. It also gave a viability, T/C (second compound 10 µM, first compound 0.001 µM) of 67.9%, a viability, T/C (second compound 10 µM, first compound 0.00316 µM) of 53.8% and a viability, T/C (second compound 10 µM, first compound 0.01 µM) of 53.6%. For the same molecule, the viability, T/C [14] was 58.7% and the viability, T/C [15] was 93.5%.
In the case of `CC1COCCN1c1cc(C2(S(C)(=N)=O)CC2)nc(-c2ccnc3[nH]ccc23)n1` (configuration not stated) + NC1CCC(NC2CC2c2ccccc2)CC1, the IC50 [1] is reported as over 10 µM, the IC50 [2] is reported as over 10 µM and the IC50 [3] is reported as over 10 µM. For the same molecule, the IC50 [4] was over 10 µM, the IC50 [5] was 1.39 µM and the viability, T/C [6] was 105%. It also gave a viability, T/C [7] of 91.5%, a viability, T/C (second compound 0.1 µM, first compound 0.316 µM) of 87.8% and a viability, T/C (second compound 0.1 µM, first compound 1 µM) of 82.8%. The viability, T/C (second compound 0.1 µM, first compound 3.16 µM) was 62.6%, the viability, T/C (second compound 0.1 µM, first compound 10 µM) was 59.9% and the viability, T/C [8] was 102%. For the same molecule, the viability, T/C [9] was 98.8%, the viability, T/C (second compound 0.316 µM, first compound 0.316 µM) was 95.8% and the viability, T/C (second compound 0.316 µM, first compound 1 µM) was 100%. For the same molecule, the viability, T/C (second compound 0.316 µM, first compound 3.16 µM) was 90%, the viability, T/C (second compound 0.316 µM, first compound 10 µM) was 58.1% and the viability, T/C [10] was 98.8%. The viability, T/C [11] was 78.5%, the viability, T/C (second compound 1 µM, first compound 0.316 µM) was 84.3% and the viability, T/C (second compound 1 µM, first compound 1 µM) was 66.3%. It also gave a viability, T/C (second compound 1 µM, first compound 3.16 µM) of 63.4%, a viability, T/C (second compound 1 µM, first compound 10 µM) of 65% and a viability, T/C [12] of 79.5%. For the same molecule, the viability, T/C [13] was 92.4%, the viability, T/C (second compound 3.16 µM, first compound 0.316 µM) was 80% and the viability, T/C (second compound 3.16 µM, first compound 1 µM) was 67.8%. It also gave a viability, T/C (second compound 3.16 µM, first compound 3.16 µM) of 61.7%, a viability, T/C (second compound 3.16 µM, first compound 10 µM) of 51.6% and a viability, T/C [14] of 81.4%. It also gave a viability, T/C [15] of 71.3%, a viability, T/C (second compound 10 µM, first compound 0.316 µM) of 80.9% and a viability, T/C (second compound 10 µM, first compound 1 µM) of 52.5%. The viability, T/C (second compound 10 µM, first compound 3.16 µM) was 43.9% and the viability, T/C (second compound 10 µM, first compound 10 µM) was 43.3%.

— PubChem BioAssay AID1918930 (Molecular Pharmacology Branch, DTP, NCI, 2023)
